This is an account of results in patent US6159988A, “Arylcycloalkyl derivatives, their production and their use” (Hoeschst Aktiengesellschaft, priority 1992, dated 2000).

In assay [1] the test system is adjuvant arthritis in rats. In words: Adjuvant-induced arthritis in rats. Conditions: 30 mg/kg orally once every day for 12 days, compared to control. It is filed as in vivo, rat (female Wistar).
Assay [2] concerns experimental allergic encephalomyelitis (EAE) in guinea pigs. In words: Experimental allergic encephalomyelitis (EAE) in guinea pigs. The note with it: 100 mg/kg p.o. once daily for 10 days. It is filed as in vivo, guinea pig. The text has this:
This method permits the evaluation of the potential of the test compound in preventing the development of an autoimmune disorder leading to demyelination in the guinea pigs which can be equated to multiple sclerosis disease in humans. EAE is a reproducible chronic inflammatory autoimmune disease of the central nervous system in which an animal is immunized with either a homologous or heterologous extract of the whole brain and spinal cord, which contains the basic myelin protein together with Freund's Complete Adjuvant (FCA). A pathological condition would set in during ten to twenty days following immunization, which is characterized by weight loss, abnormal gait, mild to severe ataxia, paraparesis and moribund state leading to death. The potential of the test compounds to prevent this autoimmune condition was evaluated by observing the severity of the disease and mortality in comparison with untreated and hydrocortisone (standard drug) treated animals.
Guinea pigs (200-300 g) were randomly distributed into groups of 10 each after receiving 0.075 ml of it brain and spinal cord extract in FCA intradermally on the back and 0.050 ml intrapedally in one hind paw. Compound 9 of Table 2 was administered orally at 3 mg/kg once daily for 10 days. The standard compound was administered 100 mg/kg p.o. once daily for 10 days. The weights of the animals were noted every day. Eight days after the induction of the disease, the animals were rated regularly for the severity of the disease and mortality was monitored.

For assay [3], the system named is Cotton Pellet Granuloma in Rats. In words: Inhibition of carrageenin cotton pellet granuloma in rats. In kind it is in vivo, rat (Wistar). Conditions: 30 mg/kg, p.o. × 5. As to the method:
The implantation of carrageenin impregnated cotton pellets results in production of large, well-defined granuloma which are easily dissected. The potency of the compounds are assessed by measuring the reduction in granuloma tissue formation.
Cotton wool pellets weighing 40 mg were used for sterilization.
Pellets were dried overnight under a lamp. The pellets in the weight range of 42-44 mg were selected.
Rats (in groups of 6, male or female, Charles River, Wistar, weighing 140-150 g) were anaesthetized with ether. The back was shaved and cleaned; swabbed with alcohol and one centimeter incision was made in the lower midback. A small channel was made bilaterally using a blunt forceps and one cotton pellet placed in each channel. Air from the incision was removed and the wound was stitched. […] Three hours after the administration of the last dose on day 7, animals were sacrificed. The pellets were removed by cutting the skin along the dorsal midline and peeling the skin away from the bodywall in both lateral directions. The pellets were weighed and then placed in drying oven at 140° C. overnight. The dry weights were then recorded and the amount of granuloma was assessed by subtracting the original pellet weight from wet weights and dry weights. The data was evaluated using the difference of left and right weights (cf. Table 4).

With `COc1cc(OC)c([C@@H]2CCCC[C@H]2O)c(O)c1C(=O)/C=C/c1cccc(Br)c1` (relative stereo) [Compound 6 of Table 1], the “reduction in the uninjected paw volume” value in assay [1] was “very slight reduction”.
In the case of `C[C@]12CCC(=O)C=C1CC[C@@H]1[C@@H]2[C@@H](O)C[C@@]2(C)[C@H]1CC[C@]2(O)C(=O)CO` [Hydrocortisone, reference compound], the “reduction in the mortality” value in assay [2] is reported as 21%. For the same compound, in assay [3], the “% Inhibition of granuloma, Dry wt.” value is 37.5% and the “% Inhibition of granuloma, Wet wt.” value came to 20.5%.
